Tests used:
[1] = method code SF-RC, from Audran, M.; Chanal, J.; Berge, G.; Marignan, R. (1983). Binding-structure correlation of bovine serum albumin in a series of cresotinamides. International Journal of Pharmaceutics, 15(3)273-284.; details: pH 1.0
[2] = method code SF-AS, from DOI: 10.1111/1523-1747.ep12263302, PMID: 6470515
[3] = method code SF-GLC, from PMID: 6629728; details: pH 7.4
[4] = method code SF-GLC, from DOI: 10.1016/0378-4274(86)90173-6, PMID: 3952768
[5] = method code SF-AS, from DOI: 10.1002/jhet.5570150704
[6] = method code SF-AS, from DOI: 10.1021/jm00284a014, PMID: 5544400
[7] = not given; remark: listed apart in the source
[8] = method code SF-AS, from DOI: 10.1016/0005-2728(86)90252-5, PMID: 3015209; details: pH 7.2
[9] = not given; remark: listed apart in the source
[10] = method code SF-AS, from DOI: 10.1248/cpb.32.2380
[11] = not given; remark: listed apart in the source
[12] = not given; remark: listed apart in the source
[13] = method code SF-AS, from DOI: 10.1016/0378-5173(90)90042-3
[14] = method code SF-AS, from Korenman, Y.; Danilov, N. (1990). Extraction of alkyl salicylates from aqueous media. Journal of Applied Chemistry of the USSR, 63(1)125-129.
[15] = method code SF, from DOI: 10.1248/yakushi1947.96.10_1169, PMID: 1033993; details: pH 0.7
[16] = not given; remark: listed apart in the source
[17] = method code SF-C, from DOI: 10.1021/ja00901a033
[18] = method code SF, from DOI: 10.1021/bk-1995-0606.ch004
[19] = method code SF-HPLC, from PMID: 3799213; details: pH 4.0
[20] = not given; remark: listed apart in the source
[21] = method code SF, from DOI: 10.1021/bk-1995-0606.ch005
[22] = method code SF-AS, from DOI: 10.1016/j.bioorg.2006.09.003, PMID: 17078995; details: pH 7.4
[23] = method code SF, from DOI: 10.1016/j.bmcl.2006.04.097, PMID: 16714112
[24] = method code SF-C, from DOI: 10.1038/194178b0
[25] = method code SF-AS, from DOI: 10.1021/bi00730a008, PMID: 4688860
[26] = from Dutta, H.; Mehta, N.; SenGupta, M.; Pal, D.; Sengupta, C.; De, A. (1988). Dioxanide furoate: studies on its interaction with blood phospholipid in relation to partition coefficients of related drugs. …
[27] = method code SF, from DOI: 10.1002/1522-2675(20001004)83:10<2836::aid-hlca2836>3.0.co;2-g; details: pH 12.5
[28] = not given; remark: listed apart in the source
[29] = method code SF-AS, from DOI: 10.1021/j150653a049

CNC(=O)c1cc(Br)cc(C)c1O
logD [1]: 3.51

Nc1ccc(Cl)c(N)c1
logP [2]: 0.85

C=CC1CCC2OC2C1 (stereo not drawn)
logD [3]: 2.08

CCCCCCCCCC(C)=O
logP [4]: 4.09

Cc1nnc(-c2ccccn2)o1
logP [5]: 0.46

CCCCNC(=O)c1cc(Br)cc(C)c1O
logD [1]: 4.21

S=c1[nH]c2ccccc2[nH]1
logP [6]: 1.66

Nc1cc(Cl)cc(Cl)c1
logP: 2.6

C1=C(c2ccccc2)CCN(c2ccccc2)C1
logP [7]: 2.71

N#CC(C#N)=NNc1c(Cl)cccc1Cl
logD [8]: 2.01

Nc1c(Cl)c(F)nc(OCC(=O)O)c1Cl
logP [9]: 1.74

CN1C(CSCC(F)(F)F)Nc2cc(Cl)c(S(N)(=O)=O)cc2S1(=O)=O (stereo not drawn)
logP [10]: 1.9

Nc1cc([N+](=O)[O-])ccc1O
logP [2]: 1.13

CC(C)c1cc(C(C)C)c(C(=O)O)c(C(C)C)c1
logP [9]: 4.05

Cc1ncn(-c2ccc(Cl)cc2)c(=O)c1C(=O)O
logP [11]: 2.26

C1=C\CC/C=C\CC/1
logP [12]: 3.16

CC(C)OC(=O)c1cc(=O)[nH]c(=O)[nH]1
logP [13]: 0.81

CCCOC(=O)c1ccccc1O
logP [14]: 3.8

O=C(O)CONC(=O)c1c(Cl)cccc1Cl
logP [11]: 0.83

CCC1C(=O)NC(=O)NC1=O
logD [15]: -0.35

CCNC(=O)c1cccnc1
logP [16]: 0.31

Cc1nonc1-c1ccccn1
logP [5]: 2.09

CC(=O)CCC(C)C
logP [4]: 1.88

Nc1ccc(N)cc1
logP [2]: -0.3

O=c1[nH]c2ccccc2[nH]1
logP [6]: 1.12

O=C(O)C(=O)Nc1ccc(Cl)cc1
logP [11]: 2.08

N#Cc1ccc(OCC(=O)O)cc1
logP [17]: 1.11

COP(=O)(OC)Oc1ccc(C#N)cc1
logP [18]: 0.84

COP(=O)(OC)Oc1c(Cl)cc(C)cc1Cl
logP [18]: 2.66

Cc1ccc(OCC(=O)O)cc1
logP [17]: 1.95

CCOC(=O)OCn1cc(F)c(=O)[nH]c1=O
logD [19]: -0.04

C=CCC1(CC)C(=O)NC(=O)N(C)C1=O (stereo not drawn)
logD [15]: 1.35

CCCC(CC)C(=O)O (stereo not drawn)
logP [20]: 2.23

COC(=O)Nc1ccccc1
logP [21]: 1.76

N#Cc1c(Cl)cccc1Cl
logP [12]: 2.65

CCC(=O)OCCc1ccc(O)c(OC)c1
logD [22]: 2.33

Ic1ccccc1C1=NCCO1
logP [23]: 2.3

CCc1cccc(OCC(=O)O)c1
logP [24]: 2.3

O=CNc1cccc(Cl)c1
logP [25]: 1.9

CCOC(=O)OCn1c(=O)[nH]cc(F)c1=O
logD [19]: 0.15

CC(=O)Oc1ccc(N(C)C(=O)C(Cl)Cl)cc1
logP [26]: 1.56

Cc1ccc(CN)cc1
logD [27]: 1.58

CNc1ccc(C)cc1
logP [28]: 2.15

CCNc1ccccc1
logP [28]: 2.16

CCC1(C2CCCCC2)C(=O)NC(=O)N(C)C1=O (stereo not drawn)
logD [15]: 2

OCc1cc(Br)ccc1O
logP [29]: 1.72

CCCN1CCCN(CCC)C1=S
logP [6]: 2.83

OCCc1ccc(O)c(O)c1
logD [22]: 0.09
